In patent US20130190370A1, “Novel Tetrahydronaphalene Antagonists to the Thromboxane A2 (TP) Receptor” (The Trustees of the University of Pennsylvania, priority 2010, published 2013):

What was measured:
[1] = biological target: T1, human TP receptor (Homo sapiens, UniProt P21731); test: Radioligand binding assay (3H-SQ29,548), human TP receptor; conditions: hTP receptor
T1 construct: expressed in transfected cells
T1 sequence (P21731 1-343): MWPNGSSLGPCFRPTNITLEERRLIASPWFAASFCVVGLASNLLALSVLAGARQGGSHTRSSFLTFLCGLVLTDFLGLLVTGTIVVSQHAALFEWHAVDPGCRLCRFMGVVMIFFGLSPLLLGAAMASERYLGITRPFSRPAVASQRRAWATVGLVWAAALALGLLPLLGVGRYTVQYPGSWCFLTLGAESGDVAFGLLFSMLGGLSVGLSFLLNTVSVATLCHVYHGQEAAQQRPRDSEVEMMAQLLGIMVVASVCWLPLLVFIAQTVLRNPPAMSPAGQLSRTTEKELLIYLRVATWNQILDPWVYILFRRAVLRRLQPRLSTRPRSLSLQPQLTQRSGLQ
Experimental: (§1) QBI-HEK 293A cells expressing human or mouse TxA2 (TP) receptor were grown as described previously and harvested in phosphate-buffered saline with 1 mM EDTA. The cell pellet was homogenized in a glass homogenizer in 20 mM Hepes, 1 mM EGTA, 0.5 mM DTT with protease inhibitor cocktail. The homogenate was initially centrifuged at 1000×g for 10 minutes at 8° C. to remove cell debris. The homogenate was then centrifuged in a Beckman L8-70M ultracentrifuge (Beckman-Coulter, Brea, Calif., USA) at 21,000 rpm for 30 minutes at 4° C., and the pellet was resuspended in 20 mM Hepes, 1 mM EGTA, 100 mM NaCl. Membrane preparations were normalized to protein level as determined with a BCA assay (ThermoFisher, Rockland, Ill.) and stored at −80° C.
(§2) Test antagonists were incubated at 10 different concentrations with 25 μg membrane and 25 nM ^3H-SQ29,548 (PerkinElmer, Waltham, Mass., USA) in 50 mM Tris, 4 mM CaCl2, 0.1% ascorbic acid pH 7.5 for 2 hours at 25° C. in 96-well polystyrene plates. Separation of bound from free radioligand was accomplished by rapid vacuum filtration onto 96-well GF/B filter plates (PerkinElmer, Waltham, Mass., USA). Filters were washed 8 times in 50 mM Tris, pH 6.9 and allowed to dry for 16 hours, Plates were sealed and filters dissolved in 50 μL Betaplate Scintillation fluid (PerkinElmer, Waltham, Mass., USA) and read on a scintillation counter. Data are presented as percent total binding as calculated by a minimum of 3 wells containing membrane and ^3H-SQ29,548 without antagonist.
(§3) Equilibrium dissociation constants (Kd), IC50, and Schild regression analyses was performed with GraphPad Prism software (GraphPad Software Inc., La Jolla, Calif., USA).
(§4) To facilitate the characterization of the new compounds, cell-based TP receptor functional assays were optimized. HEK293 clones have been produced that stably express the human (hTP) or mouse (mTP) TP receptor (a isoform), and treatment of these clones with I-BOP ([1S-[1α,2α(Z),3β(1E,3S*),4α]]-7-[3-[3-hydroxy-4-(4-iodophenoxy)-1-butenyl]-7-oxabicyclo[2.2.1]hept-2-yl]-5-heptenoic acid) results in increased production of inositol triphosphate (IP3) (Knezevic, et al., 1993, Blood 82:A156; Shenker, et al., 1991, J Biol Chem 266:9309-9313; Huang, et al., 2004, Cell Signal 16:521-533) which can be quantified by measuring the breakdown product, inositol monophosphates (IP1), using a commercial time-resolved fluorescence assay. […] A radioligand binding assay was also developed to allow for the determination of binding affinities of compounds at the hTP and mTP receptors.

[2] = biological target: T2, mouse TP receptor (Mus musculus, UniProt P30987); test: Radioligand binding assay (3H-SQ29,548), mouse TP receptor; conditions: mTP receptor
T2 construct: expressed in transfected cells
T2 sequence (P30987 1-341): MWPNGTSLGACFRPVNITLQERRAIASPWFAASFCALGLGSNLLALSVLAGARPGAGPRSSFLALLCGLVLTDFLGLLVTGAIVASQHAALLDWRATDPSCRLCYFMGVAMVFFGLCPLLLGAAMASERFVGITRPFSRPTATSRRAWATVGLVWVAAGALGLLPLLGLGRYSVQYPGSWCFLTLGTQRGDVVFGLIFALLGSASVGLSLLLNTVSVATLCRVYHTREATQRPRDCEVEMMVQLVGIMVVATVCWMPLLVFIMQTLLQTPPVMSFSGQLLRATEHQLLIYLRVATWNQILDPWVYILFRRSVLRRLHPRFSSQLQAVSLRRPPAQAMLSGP
Experimental: as §1, §2, §3, §4

[3] = biological target: T1, human TP receptor; test: IP1 functional HTRF assay, human TP receptor; format: cell-based; conditions: I-BOP stimulated IP1
Experimental: (§5) Functional activity of the TP receptor was measured by homogenous time-resolved fluorescence (HTRF) (IP-One Tb, Cisbio, Bedford, Mass., USA). QBI-HEK 293A (MP Biomedicals, Solon, Ohio, USA) cells were transfected with human TP receptor or mouse TP receptor cDNAs cloned into the pcDNA5/TO vector (Invitrogen, Carlsbad, Calif., USA), and stable transformants were selected. Cells were plated at 200,000 cells/mL in DMEM containing 4.5 g/L glucose (Invitrogen, Carlsbad, Calif., USA), 10% fetal bovine serum, L-glutamine, and penicillin/streptomycin into 384-well plates (Grenier Bio-One, Monroe, N.C., USA), followed by incubation for 16 hours at 37° C. with 5% CO2. Culture media was removed and cells were then incubated for 15 min at 37° C. with 5% CO2 in 10 mM Hepes, 1 mM CaCl2, 0.4 mM MgCl2, 4.2 mM KCl, 146 mM NaCl, 5.5 mM glucose, 50 mM LiCl, pH 7.4 (stimulation buffer) containing varying concentrations of test antagonist. I-BOP ([1S-[1α,2α(Z),3β(1E,3S*),4α]]-7-[3-[3-hydroxy-4-(4-iodophenoxy)-1-butenyl]-7-oxabicyclo[2.2.1]hept-2-yl]-5-heptenoic acid) (Cayman Chemicals, Ann Arbor, Mich., USA) was added at a final concentration of 1.6 nM in stimulation buffer and incubated for 1 hour at 37° C. with 5% CO2. […] Plates were then read on a Spectramax M5 microplate reader (Molecular Devices, Sunnyvale, Calif., USA). Data are expressed as the ratio of 665 nm/620 nm fluorescence. […]

[4] = biological target: T2, mouse TP receptor; test: IP1 functional HTRF assay, mouse TP receptor; format: cell-based; conditions: I-BOP stimulated IP1
Experimental: as §5

[5] = Pro-drug study: plasma levels of compound and carboxylic acid hydrolysis product (51280) by LC-MS/MS; format: in vivo; conditions: female mice, 5 mg/kg, 1 h after injection
Experimental: Ester and amide examples can serve as pro-drugs to release the potent carboxylic acid TP receptor antagonist CNDR-51280. Compounds in were administered at 5 mg/kg to female mice, and levels of the compound and the carboxylic acid hydrolysis product (51280) were evaluated by LC-MS/MS 1 h after injection (Table 3).

O=C(O)CCc1cccc2c1CCC(NS(=O)(=O)c1ccc(Cl)cc1)C2 (centres unmarked) [Compound 51280, 3-(6-(4-Chloroplienyistilfonamido)-5,6,7,8-tetrahydronaplithalen-1-yl)propanaic acid]
affinity for TP receptor [1]: high affinity
affinity for TP receptor [2]: high affinity
antagonist activity [3]: potent antagonist
antagonist activity [4]: potent antagonist
Plasma (compound) [5]: 10376 (+/− 3480) nM
